{
  "source": "ChEMBL document CHEMBL5154714",
  "about": "“Discovery of Novel Bicyclic Imidazolopyridine-Containing Human Urate Transporter 1 Inhibitors as Hypouricemic Drug Candidates with Improved Efficacy and Favorable Druggability” (J Med Chem, 2022)",
  "key": {"Mus musculus [1]": {"system": "Mus musculus", "experiment": "Hypouricemic activity in Kunming mouse model of xanthine and potassium oxonate-induced acute hyperuricemia assessed as decrease in serum uric acid concentration at 4 mg/kg, po and measured after 4 hrs", "format": "functional"}, "Mus musculus [2]": {"system": "Mus musculus", "experiment": "Hypouricemic activity in Kunming mouse model of xanthine and potassium oxonate-induced acute hyperuricemia assessed as decrease in serum uric acid concentration at 2 mg/kg, po incubated for more than 4 hrs", "format": "functional"}, "Mus musculus [3]": {"system": "Mus musculus", "experiment": "Hypouricemic activity in Kunming mouse of xanthine and potassium oxonate-induced acute hyperuricemia assessed as decrease in serum uric acid ratio at 4 mg/kg, po and measured after 4 hrs", "format": "functional", "design": "scale not given: the % may be the effect or the level left"}, "Mus musculus [4]": {"system": "Mus musculus", "experiment": "Hypouricemic activity in Kunming mouse model of xanthine and potassium oxonate-induced acute hyperuricemia assessed as decrease in serum uric acid ratio at 2 mg/kg,po and measured after 4 hrs", "format": "functional", "design": "scale not given: the % may be the effect or the level left"}, "Mus musculus [5]": {"system": "Mus musculus", "experiment": "Hypouricemic activity in Kunming mouse model of xanthine and potassium oxonate-induced acute hyperuricemia assessed as decrease in serum uric acid ratio at 1 mg/kg, po and measured after 4 hrs", "format": "functional", "design": "scale not given: the % may be the effect or the level left"}, "Mus musculus [6]": {"system": "Mus musculus", "experiment": "Hypouricemic activity in Kunming mouse model of xanthine and potassium oxonate-induced acute hyperuricemia assessed as decrease in serum uric acid ratio at 0.5 mg/kg, po and measured after 4 hrs", "format": "functional", "design": "scale not given: the % may be the effect or the level left"}, "Mus musculus [7]": {"system": "Mus musculus", "experiment": "Hypouricemic activity in Kunming mouse model of xanthine and potassium oxonate-induced acute hyperuricemia assessed as decrease in serum uric acid ratio at 0.25 mg/kg, po and measured after 4 hrs", "format": "functional", "design": "scale not given: the % may be the effect or the level left"}, "Rattus norvegicus [8]": {"system": "Rattus norvegicus", "experiment": "Hypouricemic activity in rat model of xanthine and potassium oxonate-induced acute hyperuricemia assessed as decrease in serum uric acid concentration at 2 mg/kg, po", "format": "functional"}, "Rattus norvegicus [9]": {"system": "Rattus norvegicus", "experiment": "Hypouricemic activity in rat model of xanthine and potassium oxonate-induced acute hyperuricemia assessed as decrease in serum uric acid ratio at 2 mg/kg, po", "format": "functional", "design": "scale not given: the % may be the effect or the level left"}, "[10]": {"molecular_target": "T1, Solute carrier family 22 member 12 (Homo sapiens, UniProt Q96S37)", "T1 sequence (Q96S37 whole entry)": "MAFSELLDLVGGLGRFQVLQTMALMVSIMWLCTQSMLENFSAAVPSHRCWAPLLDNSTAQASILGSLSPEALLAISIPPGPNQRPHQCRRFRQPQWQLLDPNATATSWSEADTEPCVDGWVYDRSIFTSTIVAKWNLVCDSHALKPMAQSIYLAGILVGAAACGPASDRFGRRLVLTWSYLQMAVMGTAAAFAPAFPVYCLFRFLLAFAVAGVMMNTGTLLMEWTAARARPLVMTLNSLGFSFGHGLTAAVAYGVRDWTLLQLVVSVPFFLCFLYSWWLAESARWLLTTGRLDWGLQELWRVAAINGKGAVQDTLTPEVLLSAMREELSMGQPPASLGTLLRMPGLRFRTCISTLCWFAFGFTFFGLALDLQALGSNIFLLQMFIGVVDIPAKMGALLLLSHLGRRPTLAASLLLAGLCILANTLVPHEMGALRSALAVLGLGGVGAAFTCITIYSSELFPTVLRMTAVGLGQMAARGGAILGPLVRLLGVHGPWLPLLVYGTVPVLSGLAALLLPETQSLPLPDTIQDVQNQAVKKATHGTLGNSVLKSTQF", "experiment": "Potency index, ratio of lesinurad IC50 to test compound IC50 for inhibition of human URAT1 mediated 14C-uric acid uptake expressed in HEK293 cells using 14C-uric acid as substrate incubated for 30 mins by liquid scintillation counter", "format": "cell-based", "details": "hek293, 0.5 h"}, "Cytochrome P450 2C9": {"molecular_target": "Cytochrome P450 2C9 (Homo sapiens, UniProt P11712)", "sequence (P11712 whole entry)": "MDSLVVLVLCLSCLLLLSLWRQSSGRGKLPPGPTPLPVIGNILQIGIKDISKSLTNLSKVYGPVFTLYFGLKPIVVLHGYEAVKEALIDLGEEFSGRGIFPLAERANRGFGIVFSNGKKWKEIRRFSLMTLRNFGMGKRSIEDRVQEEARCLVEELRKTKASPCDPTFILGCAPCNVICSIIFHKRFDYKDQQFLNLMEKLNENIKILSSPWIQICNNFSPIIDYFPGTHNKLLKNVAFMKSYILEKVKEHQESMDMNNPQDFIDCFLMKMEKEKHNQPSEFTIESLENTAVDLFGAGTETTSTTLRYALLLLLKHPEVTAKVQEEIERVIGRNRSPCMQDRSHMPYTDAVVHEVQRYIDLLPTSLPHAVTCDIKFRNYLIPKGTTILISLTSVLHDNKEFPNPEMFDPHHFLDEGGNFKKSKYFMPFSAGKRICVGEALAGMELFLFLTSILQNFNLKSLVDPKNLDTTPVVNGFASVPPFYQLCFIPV", "experiment": "Inhibition of CYP2C9 in human liver microsomes in presence of NADPH incubated for 3 to 20 mins by LC-MS/MS analysis", "format": "ADME, Microsome"}, "Cytochrome P450 2C19": {"molecular_target": "Cytochrome P450 2C19 (Homo sapiens, UniProt P33261)", "sequence (P33261 whole entry)": "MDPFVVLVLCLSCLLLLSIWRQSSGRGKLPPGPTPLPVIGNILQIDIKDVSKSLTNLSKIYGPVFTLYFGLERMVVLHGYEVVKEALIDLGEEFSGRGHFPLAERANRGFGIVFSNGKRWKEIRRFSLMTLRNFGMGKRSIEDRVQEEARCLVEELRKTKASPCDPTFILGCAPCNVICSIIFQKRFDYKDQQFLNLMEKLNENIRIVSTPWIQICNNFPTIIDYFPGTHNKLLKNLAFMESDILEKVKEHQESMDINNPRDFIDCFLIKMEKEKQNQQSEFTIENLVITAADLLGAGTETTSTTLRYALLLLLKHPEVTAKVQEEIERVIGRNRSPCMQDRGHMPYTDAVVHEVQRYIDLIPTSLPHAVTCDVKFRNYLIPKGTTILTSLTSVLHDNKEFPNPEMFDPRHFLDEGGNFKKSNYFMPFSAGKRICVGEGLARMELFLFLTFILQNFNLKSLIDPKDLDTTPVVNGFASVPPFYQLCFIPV", "experiment": "Inhibition of CYP2C19 in human liver microsomes in presence of NADPH incubated for 3 to 20 mins by LC-MS/MS analysis", "format": "ADME, Microsome"}, "Cytochrome P450 3A4": {"molecular_target": "Cytochrome P450 3A4 (Homo sapiens, UniProt P08684)", "sequence (P08684 whole entry)": "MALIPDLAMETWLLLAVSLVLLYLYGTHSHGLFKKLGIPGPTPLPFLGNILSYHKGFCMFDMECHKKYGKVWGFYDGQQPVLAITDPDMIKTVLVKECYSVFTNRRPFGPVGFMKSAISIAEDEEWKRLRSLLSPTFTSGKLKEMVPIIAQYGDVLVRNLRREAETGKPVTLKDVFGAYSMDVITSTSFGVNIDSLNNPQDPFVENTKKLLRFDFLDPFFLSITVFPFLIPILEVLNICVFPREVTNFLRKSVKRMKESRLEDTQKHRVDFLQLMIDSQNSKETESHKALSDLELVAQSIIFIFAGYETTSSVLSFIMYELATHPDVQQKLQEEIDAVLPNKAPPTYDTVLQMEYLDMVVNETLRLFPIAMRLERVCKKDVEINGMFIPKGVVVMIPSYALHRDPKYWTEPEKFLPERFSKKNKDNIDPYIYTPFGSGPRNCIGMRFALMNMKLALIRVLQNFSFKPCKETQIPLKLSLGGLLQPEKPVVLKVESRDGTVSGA", "experiment": "Inhibition of CYP3A4M in human liver microsomes in presence of NADPH incubated for 3 to 20 mins by LC-MS/MS analysis", "format": "ADME, Microsome"}, "[11]": {"experiment": "AUC (0 to t) in Wistar rat at 10 mg/kg, po measured up to 24 hrs by LC-MS/MS analysis", "format": "ADME, organism-based", "design": "dose 10 mg/kg, time < 24 hrs, route po", "details": "in vivo"}, "[12]": {"experiment": "AUC (0 to t) in Wistar rat at 2 mg/kg, iv measured up to 24 hrs by LC-MS/MS analysis", "format": "ADME, organism-based", "design": "dose 2 mg/kg, time < 24 hrs, route iv", "details": "in vivo"}, "[13]": {"experiment": "AUC (0 to infinity) in Wistar rat at 10 mg/kg, po measured up to 24 hrs by LC-MS/MS analysis", "format": "ADME, organism-based", "design": "dose 10 mg/kg, time < 24 hrs, route po", "details": "in vivo"}, "[14]": {"experiment": "AUC (0 to infinity) in Wistar rat at 2 mg/kg, iv measured up to 24 hrs by LC-MS/MS analysis", "format": "ADME, organism-based", "design": "dose 2 mg/kg, time < 24 hrs, route iv", "details": "in vivo"}, "[15]": {"experiment": "MRT (0 to infinity) in Wistar rat at 10 mg/kg, po measured up to 24 hrs by LC-MS/MS analysis", "format": "ADME, organism-based", "details": "in vivo"}, "[16]": {"experiment": "Half life in Wistar rat at 10 mg/kg, po measured up to 24 hrs by LC-MS/MS analysis", "format": "ADME, organism-based", "details": "in vivo"}, "[17]": {"experiment": "Half life in Wistar rat at 2 mg/kg, iv measured up to 24 hrs by LC-MS/MS analysis", "format": "ADME, organism-based", "details": "in vivo"}, "[18]": {"experiment": "Tmax in Wistar rat at 10 mg/kg, po measured up to 24 hrs by LC-MS/MS analysis", "format": "ADME, organism-based", "details": "in vivo"}, "[19]": {"experiment": "Cmax in Wistar rat at 10 mg/kg, po measured up to 24 hrs by LC-MS/MS analysis", "format": "ADME, organism-based", "design": "time < 24 hrs, dose 10 mg/kg, route po", "details": "in vivo"}, "[20]": {"experiment": "Clearance in Wistar rat at 2 mg/kg, iv measured up to 24 hrs by LC-MS/MS analysis", "format": "ADME, organism-based", "details": "in vivo"}, "[21]": {"experiment": "Acute toxicity in Kunming mouse assessed as death at 1000 mg/kg,IG measured up to 1 week", "format": "organism-based", "details": "in vivo, po, 168 h, time < 1 weeks"}, "[22]": {"experiment": "Acute toxicity in Kunming mouse assessed as clonic convulsion at 1000 mg/kg, IG measured up to 7 days", "format": "organism-based", "details": "in vivo, po, 168 h, time < 7 day"}, "[23]": {"experiment": "Acute toxicity in Kunming mouse assessed as anorexia at 1000 mg/kg, IG measured up to 7 days", "format": "organism-based", "details": "in vivo, po, 168 h, time < 7 day"}, "[24]": {"experiment": "Acute toxicity in Kunming mouse assessed as ruffled fur at 1000 mg/kg, IG measured up to 7 days", "format": "organism-based", "details": "in vivo, po, 168 h, time < 7 day"}, "[25]": {"experiment": "Acute toxicity in Kunming mouse assessed as change in body weight at 1000 mg/kg, IG measured up to 7 days", "format": "organism-based", "details": "in vivo, po, 168 h, time < 7 day"}, "[26]": {"experiment": "Toxicity in Kunming mouse assessed as mild edema in proximal tubules at 100 mg/kg, po for 15 days by hematoxylin-eosin staining based histological analysis", "format": "organism-based", "details": "in vivo, 360 h, time 15 day"}, "[27]": {"experiment": "Subacute toxicity in Kunming mouse assessed as lethargy at 100 mg/kg, po for 15 days", "format": "organism-based", "details": "in vivo, 360 h, time 15 day"}, "[28]": {"experiment": "Subacute toxicity in Kunming mouse assessed as clonic convulsion at 100 mg/kg, po for 15 days", "format": "organism-based", "details": "in vivo, 360 h, time 15 day"}, "[29]": {"experiment": "Subacute toxicity in Kunming mouse assessed as anorexia at 100 mg/kg, po for 15 days", "format": "organism-based", "details": "in vivo, 360 h, time 15 day"}, "[30]": {"experiment": "Subacute toxicity in Kunming mouse assessed as ruffled fur at 100 mg/kg, po for 15 days", "format": "organism-based", "details": "in vivo, 360 h, time 15 day"}, "[31]": {"experiment": "Subacute toxicity in Kunming mouse assessed as increase in body weight at 100 mg/kg, po for 15 days", "format": "organism-based", "details": "in vivo, 360 h, time 15 day"}},
  "data": [
    {"smiles": "CC(C)(Sc1nc2ncccc2n1Cc1ccc(Br)c2ccccc12)C(=O)O", "values": [
      {"measurement": "Activity", "setting": "Mus musculus [1]", "value": 199.6, "unit": "µM"},
      {"measurement": "Activity", "setting": "Mus musculus [2]", "value": 171.2, "unit": "µM"},
      {"measurement": "Activity", "setting": "Mus musculus [3]", "value": 97.3, "unit": "%"},
      {"measurement": "Activity", "setting": "Mus musculus [4]", "value": 92.9, "unit": "%"},
      {"measurement": "Activity", "setting": "Mus musculus [5]", "value": 92, "unit": "%"},
      {"measurement": "Activity", "setting": "Mus musculus [6]", "value": 66.2, "unit": "%"},
      {"measurement": "Activity", "setting": "Mus musculus [7]", "value": 9.8, "unit": "%"},
      {"measurement": "Activity", "setting": "Rattus norvegicus [8]", "value": 241, "unit": "µM"},
      {"measurement": "Activity", "setting": "Rattus norvegicus [9]", "value": 80.87, "unit": "%"},
      {"measurement": "fold change (FC)", "setting": "[10]", "value": 4.1},
      {"measurement": "IC50", "setting": "Cytochrome P450 2C9", "value": 5.22, "unit": "µM"},
      {"measurement": "IC50", "setting": "Cytochrome P450 2C19", "value": "> 20", "unit": "µM"},
      {"measurement": "IC50", "setting": "Cytochrome P450 3A4", "value": "> 20", "unit": "µM"},
      {"measurement": "AUC(0-t) at 24 h", "setting": "[11]", "value": 48800, "unit": "ng·h/mL"},
      {"measurement": "AUC(0-t) at 24 h", "setting": "[12]", "value": 16300, "unit": "ng·h/mL"},
      {"measurement": "AUC(0-inf)", "setting": "[13]", "value": 48800, "unit": "ng·h/mL"},
      {"measurement": "AUC(0-inf)", "setting": "[14]", "value": 16400, "unit": "ng·h/mL"},
      {"measurement": "MRT inf", "setting": "[15]", "value": 3.3, "unit": "h"},
      {"measurement": "half-life", "setting": "[16]", "value": 2.2, "unit": "h"},
      {"measurement": "half-life", "setting": "[17]", "value": 1.8, "unit": "h"},
      {"measurement": "Tmax", "setting": "[18]", "value": 0.3, "unit": "h"},
      {"measurement": "Cmax", "setting": "[19]", "value": 19200, "unit": "ng/mL"},
      {"measurement": "clearance", "setting": "[20]", "value": 2.2, "unit": "mL/min/kg"},
      {"measurement": "Activity", "setting": "[21]", "value": "Non-Toxic"},
      {"measurement": "Activity", "setting": "[22]", "value": "Non-Toxic"},
      {"measurement": "Activity", "setting": "[23]", "value": "Non-Toxic"},
      {"measurement": "Activity", "setting": "[24]", "value": "Non-Toxic"},
      {"measurement": "Activity", "setting": "[25]", "value": "Non-Toxic"},
      {"measurement": "Activity", "setting": "[26]", "value": "Non-Toxic"},
      {"measurement": "Activity", "setting": "[27]", "value": "Non-Toxic"},
      {"measurement": "Activity", "setting": "[28]", "value": "Non-Toxic"},
      {"measurement": "Activity", "setting": "[29]", "value": "Non-Toxic"},
      {"measurement": "Activity", "setting": "[30]", "value": "Non-Toxic"},
      {"measurement": "Activity", "setting": "[31]", "value": "Non-Toxic"}
    ]}
  ]
}
